“And” between values parts separate entries of the source, which are not always exact repeats. Equal values may be shown once. Read-outs that look alike come from different tables or passages of the source.
Tests used:
[1] = system: anaesthetized Sprague-Dawley rats; assay: Cardiac effects by ECG and echocardiography in anaesthetized rats; format: in vivo, rat; conditions: for Ejection Fraction / Heart rate / PR interval / QT interval / Stroke Volume: anaesthetized SD rats, 30 s after administration, mean ± SD
Experimental: The animals received humane care, and all experimental procedures were carried out in accordance with the “Principles of Laboratory Animal Care” by EU Directive 2010/63/EU. All experimental protocols were approved by the local Ethics Committee of University of Debrecen (25/2023/DEMÁB). Animal experiments are reported in compliance with the ARRIVE guidelines. Anesthesia was carried out using ketamine/xylazine mixture (100/10 mg/kg, i.m.). The chest was shaved and the animal was placed onto a heated pad (VisualSonics SR200, VisualSonics, Amsterdam, The Netherlands). The lateral tail vein was cannulated using a heparinized 26G i.v. cannula (BD Neoflon, BD Medical, NJ, USA). B-mode and M-mode echocardiography was carried out before and 30 s after the intravenous administration of the compounds. A high-resolution ultrasound machine (Vevo 3100 Imaging Station, VisualSonics, Amsterdam, The Netherlands) equipped with a […] transducer (MX201) was used for assessing cardiac parameters. Traces were obtained from the parasternal long axis view (PLAX). A B-mode video and an M-mode trace was recorded, and the following parameters were then offline analysed: left ventricle (LV) end-systolic and end-diastolic volume (LVESV, LVEDV, respectively) fractional shortening (FS) and ejection fraction (EF) and stroke volume (SV).
A 3-channel ECG was continuously recorded during the experiments (Vevo monitor ECG, VisualSonics, Amsterdam, The Netherlands). On the recorded ECG data, RR, PR and QT intervals, and heart rate (HR) were determined before and 30 s after the administration of the drugs, and 6 consecutive cardiac cycles were averaged for each parameter.
Statistical analyses for the in vivo studies were carried out using the GraphPad Prism 9.0 software (GraphPad Software, San Diego, CA, USA). Data distribution was assessed by the Shapiro-Wilk normality test, and paired t-test were used to determine the differences between the baseline (drug free) and endpoint (treated) parameters in each group. A multiple comparison was also carried out between the treatment groups by using one-way ANOVA with Tukey multiple comparison test. Data was shown as mean ± SD, and differences with p < 0.05 were considered significant.

[2] = DPPH radical scavenging assay; conditions: for DPPH inhibition ratio (IR) after 30-min incubation / DPPH inhibition ratio (IR) immediately: 0.5 mM
Experimental: DPPH is a stable free radical with a deep violet color that changes to yellow when neutralized by an electron or hydrogen radical, indicating the antioxidant activity of the sample being tested. The DPPH radical scavenging abilities were investigated following the method outlined by Shimamura et al., with minor adjustments. In this study, a cardiovascular tissue homogenate was used to induce H2S release from the dithioacetate derivatives 22 and 24, as well as GYY4137. A mixed solution of 1.2 mL of methanol and 800 µL of 0.1 M Tris-HCl buffer (pH 7.4) served as the blank. 1 mL DPPH solution was added to a mixture of methanol and 0.1 M Tris-HCl buffer (200:800 µL). After mixing, the absorbance was recorded at 517 nm on a UV-1600 PC VWR spectrophotometer (VWR, China). To avoid any potential interference from the heart extract in the assay, we measured the absorbance after adding different volumes of the extract into the mixture. These measurements were taken both immediately and after 30 min of incubation.
The DPPH antioxidant assay was performed according to the following procedures. 1 mL of DPPH solution was added to a mixture of 200 µL of the methanolic sample solution and 800 µL of 0.1 M Tris-HCl buffer (pH = 7.4). For the groups containing the extract, the extract was introduced into a mixture of the sample solution in PBS buffer, 0.1 M Tris-HCl buffer, and DPPH (200:800:1000 µL). Considering that GYY4137 produces H2S upon hydrolysis, it was introduced last following the addition of the extract into a solution of PBS buffer, 0.1 M Tris-HCl buffer, and DPPH maintained at the same ratio. The same protocol was employed for NaHS without the addition of the extract. After mixing, the absorbance was promptly recorded, after which the solutions were incubated in the dark at room temperature for 30 min before the absorbance was measured again. The test samples were prepared and assayed at varying concentrations using a 2-fold serial dilution method, starting from a concentration of 2 mM. Each investigation was performed in triplicate, and the antioxidant activity was based on the absorbance recorded at 517 nm. Ascorbic acid (AA), GYY4137, and NaHS served as positive controls, while the unmodified nucleosides were used as reference compounds.
The inhibition ratio (IR) was calculated as follows: [drawing 1] where Ac is the absorbance when methanol is added instead of the sample and As is the absorbance when the testing sample solution is added.
The antioxidant capacity was expressed as the concentration needed to achieve a 50% inhibition of the free radical (IC50). The IC50 values were calculated by plotting the percent of inhibition as a function of sample concentration.

[3] = ABTS radical cation decolorization assay; conditions: 0.1 mM, compared with parent dithioacetates 22 and 24
Experimental: The ABTS decolorization assay was carried out as described by Szoke et al.[54] Briefly, the method is based on the scavenging of (2,2′-azinobis-(3-ethylbenzothiazoline-6-sulfonic acid) ABTS^•+ radical cation. The decolorization caused by the compound is compared to the decolorization induced by Trolox (6-hydroxy-2,5,7,8-tetramethylchroman-2-carboxylic acid), and expressed as Trolox equivalent antioxidant capacity (TEAC) value. TEAC values were expressed as Trolox equivalents calculated from (Ai − Af)antioxidant/(Ai − Af) Trolox at 0.1 mM concentrations. Briefly, a total of 10 µL sample, 20 µL of Myoglobin Working Solution, and 150 µL of ABTS Substrate Working Solution were mixed and incubated for 5 min at room temperature. At the end of incubation […] of Stop Solution was added and endpoint absorbance at 405 nm was read. All experiments were performed in triplicates and repeated three times.

Calu-3 cells = assay: Cytotoxicity in Calu-3 cells (CellTiter-Glo); format: cell-based, human; conditions: Calu-3 cells, no virus, two days incubation; read-out: CC50 ± SE, cytotoxicity in Calu-3 cells
Experimental: Cytotoxicity was evaluated by incubating the same two-fold serial dilutions of each compound with Calu-3 cells as above in the absence of the virus. Following two days incubation at 37 °C in 5% CO2, the cell viability was determined as above. The compound concentrations resulting in 50% reduction of cell viability (CC50) were calculated from plots of percentage of luminescence versus log10 drug concentration as above. Remdesivir was used as control in both assays.

[4] = H2S release detected with amperometric H2S-specific sensor in DMEM; conditions: DMEM with 10% FBS, 0.28-0.32 mM compound
Experimental: The H2S-donating ability of compound 22, 24, 27, 29 and 30 (0.5 mg dissolved in 0.1 mL of DMSO) was detected in Dulbecco’s modified Eagle’s medium (DMEM) (4.9 mL) supplemented with 10% fetal bovine serum and 1% penicillin-streptomycin. The final concentrations were 0.31 mM for compound 22, 0.29 mM for compound 24, 0.28 mM for compound 27, 0.32 mM for compound 29 and 0.32 mM for compound 30, respectively. The released H2S was detected by an amperometric, H2S specific sensor (ISO-H2S-100, World Precision Instruments, Saratosa, FL, USA) connected to a WPI TBR 1025 One-Channel Free Radical Analyzer. The sensor was set to 10 nA range and poise voltage to + 150 mV. Before the measurements the sensor was polarized in phosphate buffered saline (PBS) for 12 h[19]. The H2S-release of NaHS was detected in distilled water (0.1 mg in 5 mL of H2O; 0.36 mM) and the H2S-release of GYY4137 was measured in DMEM (0.5 mg of GYY4137 in 5 mL of medium; 0.27 mM).

SARS-CoV-2 = format: cell-based; conditions: medium of Calu-3 cells infected 2 days at the highest compound concentration, plaque assay in Vero E6 cells
[5] = system: SARS-CoV-2 (strain hCoV-19/Czech Republic/NRL_6632_2/2020); assay: Anti-SARS-CoV-2 cytopathic-effect-based assay in Calu-3 cells (CellTiter-Glo); format: cell-based; conditions: compound added 2 h after infection, MOI 0.3, read after two days, read-out: EC50 ± SE, anti-SARS-CoV-2 activity
[6] = anaesthetized rats, 2 mg/kg i.v.
[7] = after 30 min incubation, without extract, read-out: DPPH IC50 30 min
[8] = measured immediately, without extract, read-out: DPPH IC50 immediately
[9] = after 30 min incubation, with 20 µL homogenized rat heart extract, read-out: DPPH IC50 30 min, + extract (20 µL)
[10] = measured immediately, with 20 µL homogenized rat heart extract, read-out: DPPH IC50 immediately, + extract (20 µL)

Molecule | IC50 [2, 7] | IC50 [2, 8] | CC50 (Calu-3 cells) | persistence of measurable H2S release [4] | time at which H2S gas release reached the maximum level [4] | SARS-CoV-2 titer reduction (SARS-CoV-2) | EC50 [5] | further results
Nc1ncnc2c1ncn2[C@@H]1O[C@H](CO)[C@@H](O)[C@H]1O [Adenosine, reference compound] |  |  |  |  |  |  |  | Ejection Fraction ([1]; 2 mg/kg i.v.): 71.25±2.958%; Heart rate ([1]; 2 mg/kg i.v.): 67.38±16.46 bpm; PR interval ([1]; 2 mg/kg i.v.): 59.50 ± 10.63 ms; QT interval ([1]; 2 mg/kg i.v.): 195.0 ± 31.69 ms; Stroke Volume ([1]; 2 mg/kg i.v.): 396.8 ± 130.4 µL; time within which negative chronotropic effect dissipated [1, 6]: approximately 60 s; heart block (in words) ([1]; rat, in vivo, iv, 2 mg/kg): induced heart block
O=C1O[C@H]([C@@H](O)CO)C(O)=C1O [Ascorbic acid (AA), Ascorbic acid, reference compound] | 0.06 mM | 0.06 mM |  |  |  |  |  | DPPH inhibition ratio (IR) after 30-min incubation ([2]; after 30 min incubation): 97.13%; DPPH inhibition ratio (IR) immediately ([2]; immediately): 97.25%
O=c1ccn([C@@H]2O[C@H](CS)[C@@H](O)[C@H]2O)c(=O)[nH]1 [Compound 32, 5′-Thiouridine] | 0.57 mM | 0.71 mM |  |  |  |  |  | DPPH inhibition ratio after 30 min incubation ([2]; 2 mM, after 30 min incubation): 90%; DPPH inhibition ratio immediately ([2]; 2 mM, immediately): 70–80%; DPPH activity lower than that of ascorbic acid ([2]; from IC50 values, relative to ascorbic acid): 10 times; ABTS antioxidant activity (Trolox equivalents), in words [3]: higher antioxidant activity than the parent dithioacetate derivatives
C1COCCN1.COc1ccc(P(=S)(S)N2CCOCC2)cc1 (stereo not drawn) [GYY4137, reference compound] |  |  |  |  |  |  |  | DPPH inhibition ratio (IR) after 30-min incubation ([2]; after 30 min incubation): 10.63%; DPPH inhibition ratio (IR) immediately ([2]; immediately): 5.95%
[Na+].[SH-] [NaHS, sodium hydrosulfide, reference compound] |  |  |  |  |  |  |  | DPPH inhibition ratio (IR) after 30-min incubation ([2]; after 30 min incubation): 90% and 90.03%; DPPH inhibition ratio (IR) immediately ([2]; immediately): 56.14%
O=c1ccn([C@@H]2O[C@H](CO)[C@@H](O)[C@H]2O)c(=O)[nH]1 [Uridine, reference compound] | > 100 mM | > 100 mM |  |  |  |  |  | 
S-(Adenosine-5′-yl)-dithioacetic acid [Compound 24] | 2.58 mM | 3.54 mM | ~1 mM | remained at a measurable level even after two hours | 10 to 20 min | 0 log10 PFU/mL | 173 ± 24 µM | IC50 [2, 9]: 1.62 mM; IC50 [2, 10]: 2.66 mM; Ejection Fraction ([1]; 2 mg/kg i.v.): 80.70±5.230%; Heart rate ([1]; 2 mg/kg i.v.): 120.5±29.19 bpm; PR interval ([1]; 2 mg/kg i.v.): 47.00 ± 3.742 ms; QT interval ([1]; 2 mg/kg i.v.): 172.3 ± 46.85 ms; Stroke Volume ([1]; 2 mg/kg i.v.): 416.5 ± 93.56 µL; duration of negative chronotropic action compared with adenosine [1, 6]: their duration of action was longer; heart block (in words) [1, 6]: None of the new compounds (22, 24, and 34) induced complete heart block or pauses
S-(Cytidine-5′-yl)-dithioacetic acid [Compound 29] |  |  | > 1 mM | remained at a measurable level even after two hours | 10 to 20 min | 0.13 log10 PFU/mL | > 1000 µM | 
S-(Guanosine-5′-yl)-dithioacetic acid [Compound 27] |  |  | > 1 mM | remained at a measurable level even after two hours | 10 to 20 min | 0.38 log10 PFU/mL | 158 ± 34 µM | 
S-(Thymidine-5′-yl)-dithioacetic acid [Compound 30] |  |  | 0.764 ± 0.082 mM | remained at a measurable level even after two hours | 10 to 20 min | 0.01 log10 PFU/mL | 621 ± 181 µM | 
S-(Uridine-5′-yl)-dithioacetic acid [Compound 22] | 3.63 mM | 5.56 mM | > 1 mM | remained at a measurable level even after two hours | 10 to 20 min | 0.02 log10 PFU/mL | > 1000 µM | IC50 [2, 9]: 1.57 mM; IC50 [2, 10]: 3.52 mM; Ejection Fraction ([1]; 2 mg/kg i.v.): 68.70±4.226%; Heart rate ([1]; 2 mg/kg i.v.): 172.3±19.45 bpm; PR interval ([1]; 2 mg/kg i.v.): 51.2 ± 7.530 ms; QT interval ([1]; 2 mg/kg i.v.): 122.2 ± 10.73 ms; Stroke Volume ([1]; 2 mg/kg i.v.): 344.6 ± 81.32 µL; heart block (in words) [1, 6]: None of the new compounds (22, 24, and 34) induced complete heart block or pauses

From PMC11754443, “Synthesis, H2S releasing properties, antiviral and antioxidant activities and acute cardiac effects of nucleoside 5′-dithioacetates” (Scientific Reports, 2025)
